Results published in ChEMBL document CHEMBL1152667, “Synthesis and radiopharmacological investigation of 3-[4'-[(18)F]fluorobenzylidene]indolin-2-one as possible tyrosine kinase inhibitor” (Bioorg Med Chem, 2009).

Key:
Harderian gland [1] = test: Biodistribution in Wistar rat harderian gland at 1.7 MBq, iv administered as single dose measured after 5 mins post-injection by gamma counting; type: ADME, organism-based; details: in vivo
Lung = test: Biodistribution in Wistar rat lung at 1.7 MBq, iv administered as single dose measured after 10 mins post-injection by gamma counting; type: ADME, organism-based; details: in vivo
Thymus [2] = test: Biodistribution in Wistar rat thymus at 1.7 MBq, iv administered as single dose measured after 10 mins post-injection by gamma counting; type: ADME, organism-based; details: in vivo
[3] = Biodistribution in Wistar rat thyroid gland at 1.7 MBq, iv administered as single dose measured after 10 mins post-injection by gamma counting; type: ADME, organism-based; details: in vivo
Pancreas [4] = test: Biodistribution in Wistar rat pancreas at 1.7 MBq, iv administered as single dose measured after 30 mins post-injection by gamma counting; type: ADME, organism-based; details: in vivo, 0.5 h
Spleen [5] = test: Biodistribution in Wistar rat spleen at 1.7 MBq, iv administered as single dose measured after 30 mins post-injection by gamma counting; type: ADME, organism-based; details: in vivo, 0.5 h
Thymus [6] = test: Biodistribution in Wistar rat thymus at 1.7 MBq, iv administered as single dose measured after 30 mins post-injection by gamma counting; type: ADME, organism-based; details: in vivo, 0.5 h
[7] = Biodistribution in Wistar rat thyroid gland at 1.7 MBq, iv administered as single dose measured after 30 mins post-injection by gamma counting; type: ADME, organism-based; details: in vivo, 0.5 h
[8] = Ratio of drug level in brown adipose tissue to blood in Wistar rat at 1.7 MBq, iv administered as single dose measured after 60 mins post-injection; type: ADME, organism-based
[9] = Ratio of drug level in pancreas to blood in Wistar rat at 1.7 MBq, iv administered as single dose measured after 60 mins post-injection; type: ADME, organism-based
[10] = Ratio of drug level in lung to blood in Wistar rat at 1.7 MBq, iv administered as single dose measured after 60 mins post-injection; type: ADME, organism-based
[11] = Octanol-phosphate buffer distribution coefficient, log D at pH 7.4 by shake-flask method; type: physicochemical
[12] = Metabolic stability in Wistar rat blood assessed as compound remaining at 30 MBq, iv after 5 mins by radio-HPLC analysis; type: ADME, organism-based; details: read-out: Stability
Femur [13] = test: Biodistribution in Wistar rat femur at 1.7 MBq, iv administered as single dose measured after 30 mins post-injection by gamma counting; type: ADME, organism-based; details: in vivo, 0.5 h
[14] = Metabolic stability in Wistar rat blood assessed as compound remaining at 30 MBq, iv after 20 mins by radio-HPLC analysis; type: ADME, organism-based; details: read-out: Stability
[15] = Phase 2 elimination half life in Wistar rat at 30 MBq, iv by radio-HPLC analysis; type: ADME, organism-based; details: in vivo, read-out: beta t1/2 (converted)
Blood [16] = test: Metabolic stability in Wistar rat blood at 30 MBq, iv after 60 mins by radio-HPLC analysis; type: ADME, organism-based; details: in vivo, 1 h
Mus musculus = test: Metabolic stability in mouse at 11 MBq, iv after 45 mins by radio-HPLC analysis; type: ADME, organism-based; details: in vivo, 0.75 h
[17] = Ratio of drug level in harderian gland to blood in Wistar rat at 1.7 MBq, iv administered as single dose measured after 5 mins post-injection; type: ADME, organism-based
[18] = Ratio of drug level in adrenal gland to blood in Wistar rat at 1.7 MBq, iv administered as single dose measured after 60 mins post-injection; type: ADME, organism-based
[19] = Ratio of drug level in liver to blood in Wistar rat at 1.7 MBq, iv administered as single dose measured after 60 mins post-injection; type: ADME, organism-based
[20] = Ratio of drug level in harderian gland to blood in Wistar rat at 1.7 MBq, iv administered as single dose measured after 60 mins post-injection; type: ADME, organism-based
Pancreas [21] = test: Biodistribution in Wistar rat pancreas assessed as standard uptake value at 1.7 MBq, iv administered as single dose measured after 30 mins post-injection by gamma counting; type: ADME, organism-based; details: in vivo, 0.5 h
Thymus [22] = test: Biodistribution in Wistar rat thymus assessed as standard uptake value at 1.7 MBq, iv administered as single dose measured after 1 min post-injection by gamma counting; type: ADME, organism-based; details: in vivo
[23] = Biodistribution in Wistar rat thyroid gland assessed as standard uptake value at 1.7 MBq, iv administered as single dose measured after 1 min post-injection by gamma counting; type: ADME, organism-based; details: in vivo
Liver = test: Biodistribution in Wistar rat liver assessed as standard uptake value at 1.7 MBq, iv administered as single dose measured after 1 min post-injection by gamma counting; type: ADME, organism-based; details: in vivo
Blood [24] = test: Biodistribution in Wistar rat blood assessed as standard uptake value at 1.7 MBq, iv administered as single dose measured after 5 mins post-injection by gamma counting; type: ADME, organism-based; details: in vivo
[25] = Biodistribution in Wistar rat hair/skin assessed as standard uptake value at 1.7 MBq, iv administered as single dose measured after 5 mins post-injection by gamma counting; type: ADME, organism-based; details: in vivo
[26] = Biodistribution in Wistar rat adipose tissue assessed as standard uptake value at 1.7 MBq, iv administered as single dose measured after 30 mins post-injection by gamma counting; type: ADME, organism-based; details: in vivo, 0.5 h
Harderian gland [27] = test: Biodistribution in Wistar rat harderian gland assessed as standard uptake value at 1.7 MBq, iv administered as single dose measured after 30 mins post-injection by gamma counting; type: ADME, organism-based; details: in vivo, 0.5 h
Pancreas [28] = test: Biodistribution in Wistar rat pancreas assessed as standard uptake value at 1.7 MBq, iv administered as single dose measured after 60 mins post-injection by gamma counting; type: ADME, organism-based; details: in vivo, 1 h
Spleen [29] = test: Biodistribution in Wistar rat spleen assessed as standard uptake value at 1.7 MBq, iv administered as single dose measured after 60 mins post-injection by gamma counting; type: ADME, organism-based; details: in vivo, 1 h
Heart [30] = test: Biodistribution in Wistar rat heart assessed as standard uptake value at 1.7 MBq, iv administered as single dose measured after 60 mins post-injection by gamma counting; type: ADME, organism-based; details: in vivo, 1 h
Muscle tissue [31] = test: Biodistribution in Wistar rat muscle assessed as standard uptake value at 1.7 MBq, iv administered as single dose measured after 5 mins post-injection by gamma counting; type: ADME, organism-based; details: in vivo
Harderian gland [32] = test: Biodistribution in Wistar rat harderian gland assessed as standard uptake value at 1.7 MBq, iv administered as single dose measured after 5 mins post-injection by gamma counting; type: ADME, organism-based; details: in vivo
Femur [33] = test: Biodistribution in Wistar rat femur assessed as standard uptake value at 1.7 MBq, iv administered as single dose measured after 5 mins post-injection by gamma counting; type: ADME, organism-based; details: in vivo
Thymus [34] = test: Biodistribution in Wistar rat thymus at 1.7 MBq, iv administered as single dose measured after 1 min post-injection by gamma counting; type: ADME, organism-based; details: in vivo
[35] = Biodistribution in Wistar rat thyroid gland at 1.7 MBq, iv administered as single dose measured after 1 min post-injection by gamma counting; type: ADME, organism-based; details: in vivo
Spleen [36] = test: Biodistribution in Wistar rat spleen assessed as standard uptake value at 1.7 MBq, iv administered as single dose measured after 10 mins post-injection by gamma counting; type: ADME, organism-based; details: in vivo
[37] = Biodistribution in Wistar rat adipose tissue assessed as standard uptake value at 1.7 MBq, iv administered as single dose measured after 10 mins post-injection by gamma counting; type: ADME, organism-based; details: in vivo
Muscle tissue [38] = test: Biodistribution in Wistar rat muscle assessed as standard uptake value at 1.7 MBq, iv administered as single dose measured after 10 mins post-injection by gamma counting; type: ADME, organism-based; details: in vivo
Brain = test: Biodistribution in Wistar rat brain at 1.7 MBq, iv administered as single dose measured after 5 mins post-injection by gamma counting; type: ADME, organism-based; details: in vivo
Heart [39] = test: Biodistribution in Wistar rat heart at 1.7 MBq, iv administered as single dose measured after 5 mins post-injection by gamma counting; type: ADME, organism-based; details: in vivo

O=C1Nc2ccccc2/C1=C/c1ccc([18F])cc1 gave a Drug uptake (Harderian gland [1]) of 0.34 %ID, a Drug uptake (Lung) of 0.66 %ID and a Drug uptake (Thymus [2]) of 0.23 %ID. The Drug uptake [3] was 0.05 %ID, the Drug uptake (Pancreas [4]) was 0.11 %ID and the Drug uptake (Spleen [5]) was 0.08 %ID. It also gave a Drug uptake (Thymus [6]) of 0.08 %ID, a Drug uptake [7] of 0.03 %ID and a Kp at 1 h [8] of 4.3. It also gave a Kp at 1 h [9] of 2.1, a Kp at 1 h [10] of 1.4 and a logD [11] of 3.39. It also gave a remaining at 5 min [12] of 40%, a Drug uptake (Femur [13]) of 0.13 %ID and a remaining at 20 min [14] of 12%. For the same molecule, the half-life [15] was 4.45 min, the Stability (Blood [16]) was “Unstable” and the Stability (Mus musculus) was “Unstable”. For the same molecule, the Kp at 5 min [17] was 4.4, the Kp at 1 h [18] was 8.9 and the Kp at 1 h [19] was 7.9. The Kp at 1 h [20] was 6.8, the SUV (Pancreas [21]) was 0.55% and the SUV (Thymus [22]) was 1.1%. For the same molecule, the SUV [23] was 1.55%, the SUV (Liver) was 2.98% and the SUV (Blood [24]) was 0.56%. The SUV [25] was 0.92%, the SUV [26] was 1.17% and the SUV (Harderian gland [27]) was 1.07%. For the same molecule, the SUV (Pancreas [28]) was 0.3%, the SUV (Spleen [29]) was 0.13% and the SUV (Heart [30]) was 0.2%. The SUV (Muscle tissue [31]) was 0.83%, the SUV (Harderian gland [32]) was 2.43% and the SUV (Femur [33]) was 0.64%. It also gave a Drug uptake (Thymus [34]) of 0.5 %ID, a Drug uptake [35] of 0.09 %ID and an SUV (Spleen [36]) of 0.52%. For the same molecule, the SUV [37] was 1.26%, the SUV (Muscle tissue [38]) was 0.69% and the Drug uptake (Brain) was 1.87 %ID. The Drug uptake (Heart [39]) was 0.54 %ID.
